Among the data in the NIST ThermoML archive (doi:10.1016/j.fluid.2013.10.011) are Normal melting temperature values, retold here.

± gives the expanded uncertainty stated by the source.

The conditions of this series: Crystal; visual observation.

For `O=C(O)C[C@H](O)C(=O)O` [l-hydroxysuccinic acid], the Normal melting temperature turned out to be 99.50 ± 1.6 °C.
